This is an account of results in patent publication US11083199B2, “Heterocycle derivatives as pesticides” (Bayer Aktiengesellschaft, priority 2017, dated 2021).

Structures are written as SMILES.

Common to all, as to assay type: in vivo
In experiment [1] the test system is Myzus persicae. The experiment can be described thus: Myzus persicae oral test. To be noted: 120 h, application rate 4 ppm, after 5 days, read-out: efficacy. Summed up:
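Compound formulation diluted with IPL41 insect medium (33%+15% sugar) and sealed under parafilm; mixed-population aphids feed through the membrane from a second plate. Mortality scored after 5 days as % efficacy (100% = all aphids killed, 0% = none).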

The next experiment has as its system Spodoptera frugiperda. Nature of the experiment: Spodoptera frugiperda spray test. Conditions: foliar, 168 h, application rate 100 g/ha, maize leaf discs, caterpillars, after 7 days, read-out: efficacy. On the procedure: (§1) [table] To produce a suitable active ingredient formulation, 1 part by weight of active ingredient is dissolved with the specified parts by weight of solvent and made up to the desired concentration with water containing an emulsifier concentration of 1000 ppm. To produce further test concentrations, the formulation is diluted with emulsifier-containing water. Leaf discs of maize (Zea mays) are sprayed with an active ingredient formulation of the desired concentration and, after drying, populated with caterpillars of the fall armyworm (Spodoptera frugiperda). After 7 days, the efficacy in % is determined. 100% means that all the caterpillars have been killed; 0% means that no caterpillar has been killed.

The test system of the next experiment is Phaedon cochleariae. Nature of the experiment: Phaedon cochleariae spray test. Conditions: 168 h, application rate 100 g/ha, larvae, after 7 days, read-out: efficacy. Summed up:
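Chinese cabbage leaf discs sprayed with compound formulated in solvent and water containing 1000 ppm emulsifier. Once dry, discs were populated with mustard beetle larvae. Percent kill scored after 7 days, 100% meaning all larvae dead and 0% none.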

The subject of the next experiment is Lucilia cuprina. The experiment can be described thus: Lucilia cuprina test. To be noted: 48 h, application rate 100 ppm, L1 larvae, kill after 2 days, read-out: efficacy. Here is the method: Solvent: dimethyl sulfoxide To produce a suitable active ingredient formulation, 10 mg of active ingredient are mixed with 0.5 ml of dimethyl sulfoxide, and the concentrate is diluted with water to the desired concentration. About 20 L1 larvae of the Australian sheep blowfly (Lucilia cuprina) are transferred into a test vessel containing minced horsemeat and the active ingredient formulation of the desired concentration. After 2 days, the kill in % is determined. 100% means that all the larvae have been killed; 0% means that no larvae have been killed.

A further experiment has as its system Musca domestica. Nature of the experiment: Musca domestica test. To be noted: application rate 100 ppm; adult houseflies, kill after 2 days. On the procedure:
Solvent: dimethyl sulfoxide To produce a suitable active ingredient formulation, 10 mg of active ingredient are mixed with 0.5 ml of dimethyl sulfoxide, and the concentrate is diluted with water to the desired concentration. Vessels containing a sponge treated with sugar solution and the desired concentration of active ingredient formulation are populated with 10 adult houseflies (Musca domestica). After 2 days, the kill in % is determined. 100% means that all of the flies have been killed; 0% means that none of the flies have been killed.

Experiment [2] has as its system Ctenocephalides felis. The experiment can be described thus: Ctenocephalides felis in vitro contact test with adult cat fleas. Conditions: application rate 5 μg/cm^2 (=500 g/ha), adult cat fleas dead or moribund after 48 h, read-out: efficacy. On the procedure: For the coating of the test tubes, 9 mg of active ingredient are first dissolved in 1 ml of acetone p.a. and then diluted to the desired concentration with acetone p.a. 250 μl of the solution are distributed homogeneously on the inner walls and the base of a 25 ml glass tube by turning and rocking on an orbital shaker (rocking rotation at 30 rpm for 2 h). With 900 ppm of active ingredient solution and internal surface area 44.7 cm^2, given homogeneous distribution, an area-based dose of 5 μg/cm^2 is achieved. After the solvent has evaporated off, the tubes are populated with 5-10 adult cat fleas (Ctenocephalides felis), sealed with a perforated plastic lid and incubated in a horizontal position at room temperature and ambient humidity. After 48 h, efficacy is determined. To this end, the tubes are stood upright and the fleas are knocked to the base of the tube. Fleas which remain motionless at the base or move in an uncoordinated manner are considered to be dead or moribund. […] 100% efficacy means that all the fleas were dead or moribund. 0% efficacy means that no fleas were harmed.

Experiment [3] deals with Ctenocephalides felis. Nature of the experiment: Ctenocephalides felis oral test. Conditions: 48 h, application rate 100 ppm in citrated cattle blood, kill after 2 days, read-out: efficacy. Here is the method:
Solvent: dimethyl sulfoxide To produce a suitable active ingredient formulation, 10 mg of active ingredient are mixed with 0.5 ml of dimethyl sulfoxide. Dilution with citrated cattle blood gives the desired concentration. About 20 unfed adult cat fleas (Ctenocephalides felis) are placed into a chamber which is closed at the top and bottom with gauze. A metal cylinder whose bottom end is closed with parafilm is placed onto the chamber. The cylinder contains the blood/active ingredient formulation, which can be imbibed by the fleas through the parafilm membrane. After 2 days, the kill in % is determined. 100% means that all of the fleas have been killed; 0% means that none of the fleas have been killed.

Experiment [4] deals with Myzus persicae. The experiment can be described thus: Myzus persicae spray test. To be noted: foliar, 120 h, application rate 100 g/ha, Chinese cabbage leaf discs, after 5 days, read-out: efficacy. A digest of the protocol: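 Chinese cabbage leaf discs infested with all aphid stages sprayed with compound formulated in emulsifier-containing water (1000 ppm emulsifier). Efficacy (% aphids killed; 100% = all killed) determined after 5 days.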

A further experiment concerns Tetranychus urticae. The experiment can be described thus: Tetranychus urticae spray test, OP-resistant. To be noted: foliar, 144 h, bean leaf discs, after 6 days, read-out: efficacy. Here is the method:
as §1, with “Discs” for “Leaf discs”, “bean leaves (Phaseolus vulgaris) infested with all stages of the greenhouse red spider mite (Tetranychus urticae)” for “maize (Zea mays)”, “concentration.” for “concentration and, after drying, populated with caterpillars of the fall armyworm (Spodoptera frugiperda).”, “6” for “7”, “spider mites” for “caterpillars”, “spider mites have” for “caterpillar has”

On to `CCS(=O)(=O)c1c(-c2nc3cc(C(F)(F)F)ncc3n2C)nc(-c2ccc(Cl)cc2)n1C` [Example I-005], for which the pest or weed control at 4 ppm with Myzus persicae [1] was 100%. Moreover, the figures for the pest or weed control at 100 g/ha in the experiment on Spodoptera frugiperda, in the experiment on Phaedon cochleariae and with Myzus persicae [4] were 100%, 100% and 90%, respectively. For the same compound, the pest or weed control at 100 ppm with Lucilia cuprina and with Ctenocephalides felis [3] was 100% in each case. In the experiment with Musca domestica, this compound displayed an efficacy of 100%. Further, in the experiment on Ctenocephalides felis [2], the pest or weed control at 5 µg/cm2, 500 g/ha was 100%.
For the compound `CCS(=O)(=O)c1c(-c2nc3cc(C(F)(F)F)ncc3n2C)nc(/C=C/C2CC2)n1C` [Example I-007, 2-{2-[(E)-2-Cyclopropylvinyl]-5-(ethylsulfonyl)-1-methyl-1H-imidazol-4-yl}-3-methyl-6-(trifluoromethyl)-3H-imidazo[4,5-c]pyridine], the pest or weed control at 4 ppm with Myzus persicae [1] worked out at 100%. For the same compound, the pest or weed control at 100 g/ha in the experiment with Spodoptera frugiperda turned out to be 100%; with Phaedon cochleariae it was 100%; in the experiment with Myzus persicae [4], 90%. The pest or weed control at 100 ppm in the experiment on Lucilia cuprina amounted to 100%; in the experiment with Ctenocephalides felis [3], 95%. Besides, the pest or weed control at 5 µg/cm2, 500 g/ha with Ctenocephalides felis [2] was found to be 100%.
`CCn1c(-c2ccccc2)nc(-c2nc3cc(C(F)(F)F)ncc3n2C)c1S(=O)(=O)CC` [Example I-009]: the pest or weed control at 4 ppm with Myzus persicae [1] turned out to be 100%. Further, the pest or weed control at 100 ppm came to 100% in the experiment on Lucilia cuprina and 95% in the experiment with Ctenocephalides felis [3]. This compound also returned an efficacy in the experiment on Musca domestica of 80%. The pest or weed control at 5 µg/cm2, 500 g/ha in the experiment with Ctenocephalides felis [2] is 100%. In the experiment on Myzus persicae [4], the pest or weed control at 100 g/ha was 90%.
Take `CCn1c(Cl)nc(-c2nc3cc(C(F)(F)F)ncc3n2C)c1S(=O)(=O)CC` [Example I-011]: in the experiment on Myzus persicae [1], the pest or weed control at 4 ppm was found to be 100%. The pest or weed control at 100 g/ha in the experiment with Spodoptera frugiperda, with Phaedon cochleariae and in the experiment on Myzus persicae [4] was 100% in each case. For the same compound, the pest or weed control at 100 ppm in the experiment on Lucilia cuprina and in the experiment on Ctenocephalides felis [3] was 100% each time. For the same compound, the pest or weed control at 5 µg/cm2, 500 g/ha in the experiment on Ctenocephalides felis [2] was found to be 100%.
For the compound `CCS(=O)(=O)c1c(-c2nc3cc(C(F)(F)F)ncc3n2C)nc(-c2ccccn2)n1C` [Example I-013], the pest or weed control at 4 ppm in the experiment on Myzus persicae [1] came out at 100%. The pest or weed control at 100 g/ha in the experiment on Phaedon cochleariae turned out to be 100%; in the experiment on Myzus persicae [4], 90%. Besides, the pest or weed control at 100 ppm in the experiment on Lucilia cuprina and in the experiment on Ctenocephalides felis [3] was 100% each time. For the same compound, the pest or weed control at 5 µg/cm2, 500 g/ha in the experiment with Ctenocephalides felis [2] was determined as 100%.
On to `CCS(=O)(=O)c1c(-c2nc3cc(C(F)(F)F)ncc3n2C)nc(-c2cccc(Cl)n2)n1C` [Example I-014, 2-[2-(6-Chloropyridin-2-yl)-5-(ethylsulfonyl)-1-methyl-1H-imidazol-4-yl]-3-methyl-6-(trifluoromethyl)-3H-imidazo[4,5-c]pyridine], for which, in the experiment with Myzus persicae [1], the pest or weed control at 4 ppm was 100%. The pest or weed control at 100 g/ha with Spodoptera frugiperda, in the experiment with Phaedon cochleariae and in the experiment on Myzus persicae [4] was 100% each time. Also, the pest or weed control at 100 ppm in the experiment with Lucilia cuprina and in the experiment on Ctenocephalides felis [3] was 100% throughout. The compound also showed an efficacy in the experiment with Musca domestica of 80%. In addition, in the experiment with Ctenocephalides felis [2], the pest or weed control at 5 µg/cm2, 500 g/ha is 100%.
Take `CCS(=O)(=O)c1c(-c2nc3cc(C(F)(F)F)ncc3n2C)nc(-c2ccc(Cl)cn2)n1C` [Example I-015]: in the experiment with Myzus persicae [1], the pest or weed control at 4 ppm is 100%. For the same compound, the pest or weed control at 100 g/ha was 100% in the experiment with Spodoptera frugiperda, 100% in the experiment on Phaedon cochleariae and 90% in the experiment on Myzus persicae [4]. In addition, the pest or weed control at 100 ppm in the experiment with Lucilia cuprina and with Ctenocephalides felis [3] was 100% throughout. The pest or weed control at 5 µg/cm2, 500 g/ha in the experiment with Ctenocephalides felis [2] was 100%.
Take `CCS(=O)(=O)c1c(-c2nc3cc(C(F)(F)F)ncc3n2C)nc(-c2cncc(F)c2)n1C` [Example I-018]: the pest or weed control at 4 ppm in the experiment on Myzus persicae [1] stood at 100%. Also, the pest or weed control at 100 g/ha came out at 83% in the experiment with Spodoptera frugiperda, 100% with Phaedon cochleariae and 100% with Myzus persicae [4]. The pest or weed control at 100 ppm in the experiment on Lucilia cuprina and in the experiment with Ctenocephalides felis [3] was 100% each time. Further, in the experiment on Musca domestica, the efficacy is recorded as 80%. The pest or weed control at 5 µg/cm2, 500 g/ha in the experiment with Ctenocephalides felis [2] worked out at 100%.
As for `CCS(=O)(=O)c1c(-c2nc3cc(C(F)(F)F)ncc3n2C)nc(-c2cccnc2F)n1C` [Example I-020], in the experiment on Myzus persicae [1], the pest or weed control at 4 ppm worked out at 100%. Further, the pest or weed control at 100 g/ha was 83% in the experiment with Spodoptera frugiperda, 100% in the experiment on Phaedon cochleariae and 100% in the experiment with Myzus persicae [4]. In addition, the pest or weed control at 100 ppm in the experiment with Lucilia cuprina and with Ctenocephalides felis [3] was 100% in each case. In addition, the pest or weed control at 5 µg/cm2, 500 g/ha in the experiment on Ctenocephalides felis [2] was determined as 100%.
Turning to `CCS(=O)(=O)c1c(-c2nc3cc(C(F)(F)F)ncc3n2C)nc(-c2ccncc2F)n1C` [Example I-022], in the experiment with Myzus persicae [1], the pest or weed control at 4 ppm is 100%. For the same compound, the pest or weed control at 100 g/ha in the experiment on Phaedon cochleariae and in the experiment with Myzus persicae [4] was 100% in each case. The figures for the pest or weed control at 100 ppm with Lucilia cuprina and in the experiment with Ctenocephalides felis [3] were 100% and 95%, respectively. Also, the pest or weed control at 5 µg/cm2, 500 g/ha in the experiment with Ctenocephalides felis [2] was 100%.
As for `CCS(=O)(=O)c1c(-c2nc3cc(C(F)(F)F)ncc3n2C)nc(-c2cncnc2)n1C` [Example I-023], in the experiment with Myzus persicae [1], the pest or weed control at 4 ppm is 100%. The pest or weed control at 100 g/ha in the experiment with Phaedon cochleariae and in the experiment on Myzus persicae [4] was 100% in each case. Besides, the pest or weed control at 100 ppm in the experiment on Lucilia cuprina and with Ctenocephalides felis [3] was 100% each time. In the experiment on Ctenocephalides felis [2], the pest or weed control at 5 µg/cm2, 500 g/ha worked out at 100%.
Take `CCS(=O)(=O)c1c(-c2nc3cc(C(F)(F)F)ncc3n2C)nc(-c2cc(Cl)cs2)n1C` [Example I-033]: in the experiment on Myzus persicae [1], the pest or weed control at 4 ppm came to 100%. For the same compound, the pest or weed control at 100 g/ha with Spodoptera frugiperda stood at 100%; in the experiment with Myzus persicae [4] it was 90%. Also, the pest or weed control at 100 ppm with Lucilia cuprina and with Ctenocephalides felis [3] was 100% each time. Moreover, in the experiment on Musca domestica, the efficacy was 90%.
Take `CCS(=O)(=O)c1c(-c2nc3cc(C(F)(F)F)ncc3n2C)nc(-c2ccn[nH]2)n1C` [Example I-049]: in the experiment with Myzus persicae [1], the pest or weed control at 4 ppm was found to be 100%. For the same compound, the figures for the pest or weed control at 100 g/ha in the experiment on Phaedon cochleariae, in the experiment on Tetranychus urticae (application rate 100 g/ha) and in the experiment with Myzus persicae [4] were 100%, 90% and 90%, respectively. Further, the pest or weed control at 100 ppm worked out at 100% in the experiment with Lucilia cuprina and 80% with Ctenocephalides felis [3]. Moreover, in the experiment with Musca domestica, the efficacy is on record as 80%. Also, in the experiment with Tetranychus urticae (application rate 20 g/ha), the pest or weed control at 20 g/ha turned out to be 90%.
